Measured values reported in article PMC8848768, “Synthesis and evaluation of potent yaku'amide A analogs” (Chemical Science, 2022).
Like-named read-outs stand apart in the source and are kept apart here. Square brackets hold non-standard residues; d marks the D form. Peptide text beside a SMILES is read from it. * marks the point of attachment. NH((S)-1-NMe2-3-Me-but-2-yl) = CC(C)[C@@H](CN(C)C)N*; dVal(3-OH) = CC(C)(O)[C@@H](N)C(=O)O; d(aIle) = CC[C@H](C)[C@@H](N)C(=O)O; Val(3-OH) = CC(C)(O)[C@H](N)C(=O)O; ΔVal = CC(C)=C(N)C(=O)O

Legend:
Test in all cases: cells
JURKAT = conditions: read-out: Aver IC50, JURKAT
Procedure: (§1) The antiproliferative activity profiles of 1a, its full-length analogs 2a and 2b, and its partial structures (23, 24, 26, and 30) were determined by in vitro screening in 72 hours MTS cell proliferation assays against a panel of 18 different human cancer cell lines. […] The three peptides were also evaluated for their antiproliferative activity against the lung fibroblast MRC5 cell line.
(§2) Cells (40 µ L) are added into individual wells of a 384-well black/clear bottom plate on day zero at concentrations enabling continuous log growth over the course of the assay. On day one, compounds (or DMSO) are transferred using an ATS-liquid handler (100 nL per well) to individual wells containing cells and the cells are treated for 72 hours (37 °C, 5% CO 2) prior to measuring proliferation using MTS reagent following manufacturer’s instructions. Net OD values are determined by subtracting the average OD values of cells (measured on day 1, T = 0) from average total OD value of cells (measured on day 4, T = 72h). IC 50 values are calculated using proprietary software (IC 50 values normalized against all compounds). Results represent n>2 independent studies (in duplicate).
(§3) Table S1. Antiproliferative Data of Compounds 1a, 2a, 2b, 23, 24, 26, and 30.
(§4) Table S2. Human Cell Line Descriptions.
(§5) Human Cell Line* Description
(§6) *All cells were obtained from ATCC and are authenticated

HT29 = conditions: read-out: Aver IC50, HT29
Procedure: as §1, §2, §3, §4, §5, §6

SNUC1 = conditions: read-out: Aver IC50, SNUC1
Procedure: as §1, §2, §3, §4, §5, §6

BXPC3 = conditions: read-out: Aver IC50, BXPC3
Procedure: as §1, §2, §3, §4, §5, §6

RAMOS = conditions: read-out: Aver IC50, RAMOS
Procedure: as §1, §2, §3, §4, §5, §6

OVCAR3 = conditions: read-out: Aver IC50, OVCAR3
Procedure: as §1, §2, §3, §4, §5, §6

COLO678 = conditions: read-out: Aver IC50, COLO678
Procedure: as §1, §2, §3, §4, §5, §6

HL60 = conditions: read-out: Aver IC50, HL60
Procedure: as §1, §2, §3, §4, §5, §6

CALU6 = conditions: read-out: Aver IC50, CALU6
Procedure: as §1, §2, §3, §4, §5, §6

A375 = conditions: read-out: Aver IC50, A375
Procedure: as §1, §2, §3, §4, §5, §6

A549 = conditions: read-out: Aver IC50, A549
Procedure: as §1, §2, §3, §4, §5, §6

THP1 = conditions: read-out: Aver IC50, THP1
Procedure: as §1, §2, §3, §4, §5, §6

MV411 = conditions: read-out: Aver IC50, MV411
Procedure: as §1, §2, §3, §4, §5, §6

NCIH1048 = conditions: read-out: Aver IC50, NCIH1048
Procedure: as §1, §2, §3, §4, §5, §6

PANC1005 = conditions: read-out: Aver IC50, PANC1005
Procedure: as §1, §2, §3, §4, §5, §6

U937 = conditions: read-out: Aver IC50, U937
Procedure: as §1, §2, §3, §4, §5, §6

HCT116 = conditions: read-out: Aver IC50, HCT116
Procedure: as §1, §2, §3, §4, §5, §6

[1] = tested on: lung fibroblast MRC5 cell line; conditions: read-out: Aver IC50, MRC5
Procedure: as §1, §2, §3, §4, §5, §6

[2] = JURKAT (acute T-cell leukemia), MTS, 72 hours, 37 °C, 5% CO2, 384-well, n>2 independent studies (in duplicate)
[3] = HT29 (Colon Carcinoma), MTS, 72 hours, 37 °C, 5% CO2, 384-well, n>2 independent studies (in duplicate)
[4] = SNUC1 (Colon Carcinoma), MTS, 72 hours, 37 °C, 5% CO2, 384-well, n>2 independent studies (in duplicate)
[5] = BXPC3 (Pancreatic - Adenocarcinoma), MTS, 72 hours, 37 °C, 5% CO2, 384-well, n>2 independent studies (in duplicate)
[6] = RAMOS (Burkitt's lymphoma), MTS, 72 hours, 37 °C, 5% CO2, 384-well, n>2 independent studies (in duplicate)
[7] = OVCAR3 (Ovary - Adenocarcinoma), MTS, 72 hours, 37 °C, 5% CO2, 384-well, n>2 independent studies (in duplicate)
[8] = COLO678 (Colon Carcinoma), MTS, 72 hours, 37 °C, 5% CO2, 384-well, n>2 independent studies (in duplicate)
[9] = HL60 (Leukema - Promyelocytic), MTS, 72 hours, 37 °C, 5% CO2, 384-well, n>2 independent studies (in duplicate)
[10] = CALU6 (Lung - Adenocarcinoma), MTS, 72 hours, 37 °C, 5% CO2, 384-well, n>2 independent studies (in duplicate)
[11] = A375 (Malignant Melanoma), MTS, 72 hours, 37 °C, 5% CO2, 384-well, n>2 independent studies (in duplicate)
[12] = A549 (Lung - NSCLC), MTS, 72 hours, 37 °C, 5% CO2, 384-well, n>2 independent studies (in duplicate)
[13] = THP1 (Acute Monocytic Leukemia), MTS, 72 hours, 37 °C, 5% CO2, 384-well, n>2 independent studies (in duplicate)
[14] = MV411 (Acute Myeloid Leukemia), MTS, 72 hours, 37 °C, 5% CO2, 384-well, n>2 independent studies (in duplicate)
[15] = NCIH1048 (Lung - SCLC), MTS, 72 hours, 37 °C, 5% CO2, 384-well, n>2 independent studies (in duplicate)
[16] = PANC1005 (Pancreatic - Adenocarcinoma), MTS, 72 hours, 37 °C, 5% CO2, 384-well, n>2 independent studies (in duplicate)
[17] = U937 (Pro-monocytic, Human Myeloid Leukemia), MTS, 72 hours, 37 °C, 5% CO2, 384-well, n>2 independent studies (in duplicate)
[18] = HCT116 (Colon Carcinoma), MTS, 72 hours, 37 °C, 5% CO2, 384-well, n>2 independent studies (in duplicate)
[19] = MRC5 (Lung Fibroblast, noncancerous), MTS, 72 hours, 37 °C, 5% CO2, 384-well, n>2 independent studies (in duplicate)

Row | SMILES | IC50 (JURKAT; [2]) [µM] | IC50 (HT29; [3]) [µM] | IC50 (SNUC1; [4]) [µM] | IC50 (BXPC3; [5]) [µM] | IC50 (RAMOS; [6]) [µM] | IC50 (OVCAR3; [7]) [µM] | IC50 (COLO678; [8]) [µM] | IC50 (HL60; [9]) [µM] | IC50 (CALU6; [10]) [µM] | IC50 (A375; [11]) [µM] | IC50 (A549; [12]) [µM] | IC50 (THP1; [13]) [µM] | IC50 (MV411; [14]) [µM] | IC50 (NCIH1048; [15]) [µM] | IC50 (PANC1005; [16]) [µM] | IC50 (U937; [17]) [µM] | IC50 (HCT116; [18]) [µM] | IC50 [1, 19] [µM] | also measured
1 | CC(=O)N[C@@H](C(=O)N[C@H](C(=O)NC(C(=O)N[C@H](CN(C)C)C(C)C)=C(C)C)C(C)C)C(C)C [Compound 23] | > 25 | > 25 | > 25 | > 25 | > 25 | > 25 | > 25 | > 25 | > 25 | > 25 | > 25 | > 25 | > 25 | > 25 | > 25 | > 25 | > 25 | > 25 | 
2 | CC[C@H](C)[C@@H](NC(C)=O)C(=O)N[C@@H](C(=O)N[C@H](C(=O)NC(C(=O)N[C@H](C)C(=O)N[C@@H](C(=O)N[C@H](C(=O)NC(C(=O)N[C@H](CN(C)C)C(C)C)=C(C)C)C(C)C)C(C)C)=C(C)C)C(C)(C)O)C(C)(C)O [Compound 24] (Ac-[d(aIle)][dVal(3-OH)][Val(3-OH)][ΔVal][dA][dV]V[ΔVal]-{NH((S)-1-NMe2-3-Me-but-2-yl)}) | > 25 | > 25 | 24.9 | > 25 | > 25 | > 25 | > 25 | > 25 | > 25 | > 25 | > 25 | > 25 | > 25 | > 25 | > 25 | > 25 | > 25 | > 25 | 
3 | CC[C@@]1(O)C(=O)OCc2c1cc1n(c2=O)Cc2cc3ccccc3nc2-1 [Camptothecin, reference compound] |  |  |  |  |  |  |  |  |  |  |  |  |  |  |  |  |  |  | IC50 (JURKAT; Homo sapiens, Jurkat, 72 h): 0.0073 µM; IC50 (HT29; Homo sapiens, HT-29, 72 h): 0.103 µM; IC50 (SNUC1; Homo sapiens, SNU-C1, 72 h): 0.0474 µM; IC50 (BXPC3; Homo sapiens, BXPC-3, 72 h): 0.0384 µM; IC50 (RAMOS; Homo sapiens, Ramos, 72 h): 0.0097 µM; IC50 (OVCAR3; Homo sapiens, OVCAR-3, 72 h): 0.0534 µM; IC50 (COLO678; Homo sapiens, COLO-678, 72 h): 0.126 µM; IC50 (HL60; Homo sapiens, HL-60, 72 h): 0.021 µM; IC50 (CALU6; Homo sapiens, Calu-6, 72 h): 0.0102 µM; IC50 (A375; Homo sapiens, A-375, 72 h): 0.0059 µM; IC50 (A549; Homo sapiens, A549, 72 h): 0.0277 µM; IC50 (THP1; Homo sapiens, THP-1, 72 h): 0.0449 µM; IC50 (MV411; Homo sapiens, MV4-11, 72 h): 0.0071 µM; IC50 (NCIH1048; Homo sapiens, NCI-H1048, 72 h): 0.0097 µM; IC50 (PANC1005; Homo sapiens, Panc1005, 72 h): 0.0453 µM; IC50 (U937; Homo sapiens, U-937, 72 h): 0.0197 µM; IC50 (HCT116; Homo sapiens, HCT-116, 72 h): 0.0109 µM; IC50 ([1]; Homo sapiens, MRC5, 72 h): 0.0525 µM
